Data on 2 molecules can be found in patent publication US20100015576A1, “METHOD AND APPARATUS FOR DIAGNOSTIC AND TREATMENT USING HARD TISSUE OR MATERIAL MICROPERFORATION” (RejuveDent LLC, priority 2007, published 2010).

The conditions of data set [1]: in 14 hours; 33% hydrogen peroxide on micro-perforations.
Experimental: One freshly extracted lower human incisor was used in the experiment. Immediately after extraction, the tooth was stored in a 0.1% w/w thymol solution at a temperature of +4-6° C. for 3 weeks.
For data set [2] the following is noted: value used as input for the model calculation, cited from earlier work; for diffusion coefficient, peritubular: peritubular dentine; for diffusion coefficient, tubular: tubular dentine.
Data set [3] can be described thus: In vivo whitening of teeth through laser microperforations.

As to `OO` [hydrogen peroxide], in data set [1], the “brown discoloration of the root surface” value is “completely bleached”. For the same molecule, in data set [2], the “diffusion coefficient in intertubular dentine” value is 3.6×10^−7 cm^2/sec; the “diffusion coefficient, peritubular” value is 3.6×10^−8 cm^2/sec; the “diffusion coefficient, tubular” value is on record as 3.6×10^−6 cm^2/sec. The “whitening effect (VITA scale)” value in data set [3] (Patient 1, 5 days after the procedure, peroxide 105 min at 37° C., 4 laser holes) was “one shade”. The “whitening effect (VITA scale)” value in data set [3] (Patient 1, 7 days after the procedure, peroxide 105 min at 37° C., 4 laser holes) is reported as “one more shade”. Further, the “whitening effect (VITA scale)” value in data set [3] (Patients 2 and 3, 1 day after the procedure, peroxide 70 min / 45 min at 37° C.) is given as “two shades (A3 to A1)”. Besides, the “adverse effects on the oral mucosa” value in data set [3] (three patients) was “didn't observe any adverse effects”. Besides, in data set [3] (treated teeth, after extraction), the “pulp vitality (follow-up histopathology)” value is recorded as “confirmed the vitality of the pulp”.
On to `O` [water], for which, in data set [2], the “diffusion coefficient in intertubular dentine” value is 1.74×10^−6 cm^2/sec; the “diffusion coefficient, peritubular” value is 1.74×10^−7 cm^2/sec; the “diffusion coefficient, tubular” value is 1.74×10^−5 cm^2/sec.
